{"source": "paper PMC2750848", "about": "(Journal of medicinal chemistry, 2008)", "origin": "cited, not measured here", "test_system": "M. tuberculosis H37Rv", "note": "Marks after values point to notes of the source that are not given here."}
{"substance": "5′-O-[N-(salicyl)sulfamoyl]adenosine [Compound 4]", "values": [{"measurement": "MIC99 (Fe-deficient)", "setting": "Fe-deficient", "result": "0.39 ^i µM"}, {"measurement": "MIC99 (Fe-rich)", "setting": "Fe-rich", "result": "1.56 ^i µM"}]}
